What was measured:
Type in all cases: in vivo
[1] = test system: Venturia inaequalis; assay: Venturia test (apple)/protective; conditions: protective spray, active compound concentration 10 ppm, evaluation 12 days after inoculation
Protocol: Venturia Test (Apple)/Protective Solvent: 4.7 parts by weight of acetone Emulsifier: 0.3 part by weight of alkylaryl polyglycol ether To produce a suitable preparation of active compound, 1 part by weight of active compound is mixed with the stated amounts of solvent and emulsifier, and the concentrate is diluted with water to the desired concentration. To test for protective activity, young plants are sprayed with the preparation of active compound. After the spray coating has dried on, the plants are inoculated with an aqueous conidia suspension of the apple scab causative organism Venturia inaequalis and then left in an incubation cabin at 20° C. and 100% relative atmospheric humidity for 1 day. The plants are then placed in a greenhouse at 20° C. and a relative atmospheric humidity of about 70%. Evaluation is carried out 12 days after the inoculation.

[2] = test system: Uncinula necator; assay: Uncinula test (vine)/protective; conditions: protective spray, evaluation 14 days after inoculation
Protocol: (§1) Uncinula Test (Vine)/Protective Solvent: 4.7 parts by weight of acetone Emulsifier: 0.3 part by weight of alkylaryl polyglycol ether To produce a suitable preparation of active compound, 1 part by weight of active compound is mixed with the stated amounts of solvent and emulsifier, and the concentrate is diluted with water to the desired concentration. To test for protective activity, young plants are sprayed with the preparation of active compound. After the spray coating has dried on, the plants are dusted with conidia of the fungus Uncinula necator. The plants are then placed in a greenhouse at 23 to 24° C. and a relative atmospheric humidity of about 75%. Evaluation is effected 14 days after the inoculation.

[3] = test system: Sphaerotheca fuliginea; assay: Sphaerotheca test (cucumber)/protective; conditions: protective spray, active compound concentration 100 ppm, evaluation 10 days after inoculation
Protocol: as §1, with “Sphaerotheca Test (Cucumber)/Protective” for “Uncinula Test (Vine)/Protective”, “Sphaerotheca Test (Cucumber)/Protective Solvent: 4.7” for “Uncinula Test (Vine)/Protective Solvent: 4.7”, “the fungus Sphaerotheca fuliginea. The plants” for “the fungus Uncinula necator. The plants”, “C. and at a relative” for “C. and a relative”, “Evaluation is carried out 10 days after” for “Evaluation is effected 14 days after”

[4] = test system: Plasmopara viticola; assay: Plasmopara test (vine)/protective; conditions: protective spray, active compound concentration 100 ppm, evaluation 6 days after inoculation
Protocol: Plasmopara Test (Vine)/Protective Solvent: 4.7 parts by weight of acetone Emulsifier: 0.3 part by weight of alkylaryl polyglycol ether To produce a suitable preparation of active compound, 1 part by weight of active compound is mixed with the stated amounts of solvent and emulsifier, and the concentrate is diluted with water to the desired concentration. To test for protective activity, young plants are sprayed with the preparation of active compound. After the spray coating has dried on, the plants are inoculated with an aqueous spore suspension of Plasmopara viticola and then remain in a humidity chamber at 20 to 22° C. and 100% relative atmospheric humidity for 1 day. The plants are then placed in a greenhouse at 21° C. and about 90% atmospheric humidity for 5 days. The plants are then moistened and placed in a humidity chamber for 1 day. Evaluation is carried out 6 days after the inoculation.

[5] = test system: Erysiphe graminis f.sp. hordei; assay: Erysiphe test (barley)/protective; conditions: protective spray, application rate 250 g/ha, evaluation 7 days after inoculation
Protocol: Erysiphe Test (Barley)/Protective Solvent: 10 parts by weight of N-methyl-pyrrolidone Emulsifier: 0.6 part by weight of alkylaryl polyglycol ether To produce a suitable preparation of active compound, 1 part by weight of active compound is mixed with the stated amounts of solvent and emulsifier, and the concentrate is diluted with water to the desired concentration. To test for protective activity, young plants are sprayed with the preparation of active compound at given application rate. After the spray coating has dried on, the plants are dusted with spores of Erysiphe graminis f.sp. hordei. The plants are placed in a greenhouse at a temperature of about 20° C. and a relative atmospheric humidity of about 80%, in order to promote the development of powdery mildew pustules. Evaluation is carried out 7 days after the inoculation.

[6] = test system: Leptosphaeria nodorum; assay: Leptosphaeria nodorum test (wheat)/protective; conditions: protective spray, application rate 250 g/ha, evaluation 10 days after inoculation
Protocol: Leptosphaeria nodorun Test (Wheat)/Protective Solvent: 10 parts by weight of N-methyl-pyrrolidone Emulsifier: 0.6 part by weight of alkylaryl polyglycol ether To produce a suitable preparation of active compound, 1 part by weight of active compound is mixed with the stated amounts of solvent and emulsifier, and the concentrate is diluted with water to the desired concentration. To test for protective activity, young plants are sprayed with the preparation of active compound. After the spray coating has dried on, the plants are sprayed with a spore suspension of Leptosphaeria nodorum. The plants remain for 48 hours in an incubation cabin at 20° C. and 100% relative atmospheric humidity. The plants are placed in a greenhouse at a temperature of about 15° C. and a relative atmospheric humidity of about 80%. Evaluation is effected 10 days after the inoculation.

## COC(=O)/C(=C/OCF)c1ccccc1Oc1nc(-c2ccc(Br)cc2)ns1 [Example 2, methyl 2-{2-[3-(4-bromophenyl)-1,2,4-thiadiazol-5-yloxy]-phenyl}-3-fluoromethoxy-acrylate]
[1]
  Efficacy in % of the untreated control: 100%
[2]; active compound concentration 10 ppm
  Efficacy: 100%
[2]; active compound concentration 25 ppm (table)
  Efficacy in % of the untreated control: 100%
[3]
  Efficacy in % of the untreated control: 100%
[4]
  Efficacy in % of the untreated control: 100%
[5]
  Efficacy in % of the untreated control: 81%
[6]
  Efficacy in %, relative to the untreated control: 88%

— patent publication US6337401B1, “Fluoromethoxyacrylic acid derivatives and their use as pest control agents” (Bayer Aktiengesellschaft, priority 1995, dated 2002)
